Our source for the PDH activity and DLAT lipoyl levels values is US11726088B2, “Sirtuin 4 (SIRT4) lipoamidase activity and uses thereof” (THE TRUSTEES OF PRINCETON UNIVERSITY, priority 2014, dated 2023).

Peptide text beside a SMILES is read from it.

Test [1] has as its system PDH. In words: PDH activity assay (immunocapture colorimetric) in fibroblasts stimulated with glutamax. The conditions noted are these: WT fibroblasts, glutamax 4 mM, versus unstimulated cells. Type of test: cell-based, human. The method, then:
PDH activity assay. The activity of the PDHC in MRC5 derivate cell lines was measured using the Pyruvate Dehydrogenase Enzyme Activity Microplate Assay Kit (Abcam, cat. #ab109902) according to manufacturer's instructions. 1000 μg/well of cultured cell extract from each line being tested was used as input for PDHC binding, and 5 μg/well of pyruvate dehydrogenase from porcine heart (Sigma-Aldrich, cat. #P7032) used as a positive control for the assay. PDH activity was measured by reduction of NAD+ to NADH, coupled to the reduction of a reporter dye to yield a colored reaction product with an increase in absorbance at 450 nm at room temperature. […] Statistical significance was assessed by one-way ANOVA in GraphPad Prism 5. […]
We next investigated a cellular condition known to inhibit PDH activity, and examined the involvement of SIRT4 in this process. […] In agreement with these observations, we detected elevated expression of endogenous SIRT4 in cells stimulated with glutamax (FIG. 3J). To validate the dependence of PDH inhibition on SIRT4 activity, we first measured PDH activity in SIRT4 OE cells stimulated with glutamax. […] It remains to be determined whether residual SIRT4 still functions in these knocked-down lines to decrease PDH activity following glutamax stimulation, or another yet to be identified PDH inhibition mechanism is at play. […]

Test [2] relates to DLAT lipoyl (K132 and K259). The test is described as follows: DLAT lipoyl levels by PRM quantification in glutamax-stimulated cells. The conditions noted are these: glutamax stimulation, within 48 hr. The format is cell-based, human. The method, then: Lipoyl-lysine SRM assay. The relative abundance of lipoyl-lysine-containing peptides identified from immunoisolated, in-gel digested DLAT (described above) was measured in mitochondria lysates using a selected reaction monitoring (SRM) full-scan tandem mass spectrometry assay. Purified mitochondria were isolated from MRC5 stable cell lines expressing EGFP, SIRT4-EGFP, and SIRT4-targeting shRNA (described above). Mitochondria pellets were lysed by agitation and bath sonication in 100 μL of hot (95° C.) buffer containing 0.1 M ammonium bicarbonate, 5 mM tris(2-carboxyethyl)phosphine, 1 mM nicotinamide, and 0.1% RapiGest. Protein concentration was determined using the Bradford reagent (Sigma). […] Eluates from the same sample were pooled and concentrated to near-dryness, diluted to 8 μL, and half were analyzed by an LC-SRM-MS/MS assay on an LTQ Orbitrap Velos mass spectrometry (Thermofisher Scientific). […] At least four co-eluting XICs (dot-product score of ≥0.95) were used for peak area quantification. […] Peak areas were summed across XICs, exported to Excel, and normalized across biological replicates (n=3-6) using the average chromatographic precursor intensity calculated by RawMeat (Vast Scientific, Inc). Statistical significance was determined by unpaired, two-tailed t-tests in Microsoft Excel. […]

Regarding `C[C@H](N)C(=O)N[C@@H](CCC(N)=O)C(=O)O` [glutamax] (H-Ala-Gln-OH), in test [1], the PDH activity entry is given as “significant time-dependent decrease”. In addition, in test [2], the DLAT lipoyl levels result is “decrease”.
